Experimental data from ChEMBL document CHEMBL1201862, “PubChem BioAssay data set” (2004).
Active and inactive are the calls of the source.

Key:
[1] = molecular target: Long-chain-fatty-acid--AMP ligase FadD28 (Mycobacterium tuberculosis, UniProt P9WQ59); experiment: Fluorescence polarization aasay to screen for inhibitors that compete for the binding of FadD28 to a bisubstrate Measured in Biochemical System Using Plate Reader - 2147-01_Inhibitor_Dose_CherryPick_Activity.; format: functional, Mycobacterium tuberculosis H37Rv
Long-chain-fatty-acid--AMP ligase FadD28, sequence (P9WQ59 whole entry): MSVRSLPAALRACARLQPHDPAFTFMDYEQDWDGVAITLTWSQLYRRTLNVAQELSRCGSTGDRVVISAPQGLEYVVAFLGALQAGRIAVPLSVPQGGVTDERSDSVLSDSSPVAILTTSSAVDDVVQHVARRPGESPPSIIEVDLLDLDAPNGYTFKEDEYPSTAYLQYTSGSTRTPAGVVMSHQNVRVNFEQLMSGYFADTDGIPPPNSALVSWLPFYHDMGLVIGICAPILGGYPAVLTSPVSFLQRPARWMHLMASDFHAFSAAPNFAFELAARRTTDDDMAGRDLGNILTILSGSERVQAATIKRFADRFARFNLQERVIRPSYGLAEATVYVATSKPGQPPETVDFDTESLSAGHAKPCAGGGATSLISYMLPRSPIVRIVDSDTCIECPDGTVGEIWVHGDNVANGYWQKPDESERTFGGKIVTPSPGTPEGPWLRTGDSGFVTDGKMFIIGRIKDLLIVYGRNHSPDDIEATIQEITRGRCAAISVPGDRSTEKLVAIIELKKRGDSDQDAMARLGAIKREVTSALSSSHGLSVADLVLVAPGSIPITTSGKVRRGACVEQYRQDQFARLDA

[2] = general mammalian cell viability loss – activator set, cherry-pick, cytotoxicity control for miR-122 modulator project, dose response (AID 720690); format: functional, cell-based;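 also: HEK293T human cells scored for general mammalian cytotoxicity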
[3] = inhibitors of EBV LMP1 NF-kappaB signaling – cell-based, luciferase reporter, luminescence, dry powder, set 2, dose response (AID 624376); format: functional
[4] = CTGF mRNA reduction in DLD1 cells – cell-based, DLD1 colon cancer, RT-qPCR, cherry-pick, dose response (AID 1053122); format: functional; conditions: Cancer cell lines
[5] = general mammalian cell viability loss – inhibitor set, cherry-pick, set 2, cytotoxicity control for miR-122 modulator project, dose response (AID 720697); format: functional, cell-based
[6] = molecular target: Endoplasmic reticulum aminopeptidase 1 (Homo sapiens, UniProt Q9NZ08); experiment: inhibition of human ERAP1 enzyme activity – biochemical, cherry-pick, set 2, plate reader, dose response (AID 743314)
Endoplasmic reticulum aminopeptidase 1, sequence (Q9NZ08 whole entry): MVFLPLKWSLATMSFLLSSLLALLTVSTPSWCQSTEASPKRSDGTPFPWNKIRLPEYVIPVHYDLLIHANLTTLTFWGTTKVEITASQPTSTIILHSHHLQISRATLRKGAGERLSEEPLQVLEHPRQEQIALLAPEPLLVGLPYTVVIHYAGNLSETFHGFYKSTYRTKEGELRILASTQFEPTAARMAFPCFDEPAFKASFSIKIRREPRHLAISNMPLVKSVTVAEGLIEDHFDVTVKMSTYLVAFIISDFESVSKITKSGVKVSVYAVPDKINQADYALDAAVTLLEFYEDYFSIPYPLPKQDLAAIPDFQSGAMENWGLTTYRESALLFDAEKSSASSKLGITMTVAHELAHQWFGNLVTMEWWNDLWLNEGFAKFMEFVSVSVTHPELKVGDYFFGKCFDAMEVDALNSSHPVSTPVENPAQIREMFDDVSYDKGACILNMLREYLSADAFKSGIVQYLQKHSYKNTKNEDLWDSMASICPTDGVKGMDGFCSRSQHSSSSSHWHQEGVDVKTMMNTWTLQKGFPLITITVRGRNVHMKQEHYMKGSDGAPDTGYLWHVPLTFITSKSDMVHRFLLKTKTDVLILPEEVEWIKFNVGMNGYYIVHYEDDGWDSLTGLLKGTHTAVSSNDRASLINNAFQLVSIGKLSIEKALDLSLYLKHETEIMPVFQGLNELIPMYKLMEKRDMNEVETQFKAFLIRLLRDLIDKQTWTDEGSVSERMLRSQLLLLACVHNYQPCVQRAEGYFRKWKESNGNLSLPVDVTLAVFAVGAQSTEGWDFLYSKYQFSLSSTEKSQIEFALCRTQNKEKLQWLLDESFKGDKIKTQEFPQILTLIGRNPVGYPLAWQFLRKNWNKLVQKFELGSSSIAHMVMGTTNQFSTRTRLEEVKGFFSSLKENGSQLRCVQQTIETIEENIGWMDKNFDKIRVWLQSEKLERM

[7] = T. cruzi growth inhibition in host cells, dose response, cell-based, plate reader, dry powder, set 2 (AID 652275); format: functional
[8] = mouse embryonic fibroblast toxicity – cell-based, plate reader, dry powder, set 2, cytotoxicity control, dose response (AID 652280); format: functional; conditions: NIH3T3
[9] = molecular target: T1, Low molecular weight phosphotyrosine protein phosphatase (Homo sapiens, UniProt P24666); format: functional; conditions: read-out: IC50_Mean
T1 sequence (P24666 whole entry): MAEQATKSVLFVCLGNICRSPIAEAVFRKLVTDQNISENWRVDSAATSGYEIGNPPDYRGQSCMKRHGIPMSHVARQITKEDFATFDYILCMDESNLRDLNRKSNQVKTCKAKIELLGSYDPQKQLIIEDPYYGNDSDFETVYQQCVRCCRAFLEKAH

[10] = molecular target: T1, Low molecular weight phosphotyrosine protein phosphatase; format: functional; conditions: read-out: IC50_Mean; remark: listed apart in the source
[11] = blockers of bursicon-stimulated LGR2 cAMP reporter – cell-based, HEK293, CRE-luciferase reporter, cherry pick, set 2, dose response (AID 743343); format: functional;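 also: transfected cells were stimulated with diluted bursicon conditioned medium after compound addition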
[12] = toxicity toward HepG2 liver cells – cell-based, plate reader, cherry-pick, antagonist series, cytotoxicity control, dose response (AID 743416); format: functional
[13] = blockade of melanocortin 4 receptor signaling – cell-based, plate reader, cherry pick, counter-screen for LGR2 antagonist project, dose response (AID 743444); format: functional;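 also: transfected HEK 293 cells stimulated with alpha-MSH peptide; potency of inhibitors of the alpha-MSH evoked signal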
[14] = A549 cell cytotoxicity, dose response, cytotoxicity control, plate reader, cherry-pick, antagonist series (AID 743412); format: functional, cell-based

## O=C(NCCSCc1ccc(Cl)cc1Cl)c1ccc(CN2CCOCC2)cc1
[1]
  AC50: 15.7 µM (active)

## CCOC(=O)c1ccc(NC(=S)N(CCN(C)C)Cc2cccs2)cc1
[1]
  AC50: > 100 µM (inactive)

## COc1ccc(NC(=O)N(C)C[C@@H]2Oc3cc(C#CCC(C)C)ccc3S(=O)(=O)N([C@@H](C)CO)C[C@@H]2C)cc1
[2]
  AC50: 26.8 µM (active)
[3]
  AbsAC35: 43.42 µM

## C[C@@H]1CN([C@H](C)CO)C(=O)c2ccccc2-c2ccccc2CO[C@@H]1CN(C)Cc1cccc2c1OCCCO2
[4]
  AC50: 12.3 µM (active)

## C[C@@H]1CN([C@@H](C)CO)C(=O)Cc2cc(NS(=O)(=O)c3ccc(Cl)cc3)ccc2O[C@H]1CN(C)Cc1ccc(C(F)(F)F)cc1
[2]
  AC50: 33.8 µM (active)
[5]
  AC50: < 0.195 µM (active)

## O=C(NCc1ccccn1)[C@@H]1[C@@H](CO)[C@@H]2Cn3c(ccc(/C=C/c4ccccc4)c3=O)[C@H]1N2CC1CC1
[6]
  AC50: 7.58 µM (active)

## OC[C@H]1[C@H](c2ccc(-c3cccc(F)c3)cc2)[C@@H]2CN(CCC(F)(F)F)CCCCN12
[7]
  AC50: 0.53 µM (active)
[8]
  AC50: 3.34 µM (active)

## CC(/C=N/NC(=O)c1ccc(Br)cc1)=C\c1ccccc1
[9]
  IC50: 28.5 µM (inactive)
[10]
  IC50: 17.2 µM (active)

## COc1ccc2oc(-c3ccccc3)cc(=O)c2c1 [6-METHOXYFLAVONE]
[11]
  AC50: 5.46 µM (active)
[12]
  AC50: > 52 µM (inactive)
[13]
  AC50: 6.5 µM (active)
[14]
  AC50: > 52 µM (inactive)
